CC(=O)S[C@@H]1CC2=CC(=O)CC[C@]2(C)[C@H]2CC[C@@]3(C)[C@@H](CC[C@@]34CCC(=O)O4)[C@H]12
Details	solubility (mole fraction)
in ethanol, 278.75 K	0.0017
in ethanol, 283.55 K	0.00197
in ethanol, 288.45 K	0.00238
in ethanol, 293.45 K	0.0031
in ethanol, 298.35 K	0.00394
in ethanol, 303.15 K	0.00491
in ethanol, 308.25 K	0.00606
in ethanol, 313.15 K	0.00771
in ethanol, 317.95 K	0.00975
in ethyl acetate, 278.85 K	0.0179
in ethyl acetate, 283.65 K	0.0198
in ethyl acetate, 288.55 K	0.0226
in ethyl acetate, 293.45 K	0.0246
in ethyl acetate, 298.3 K	0.0281
in ethyl acetate, 303.15 K	0.0314
in ethyl acetate, 308.1 K	0.0359
in ethyl acetate, 312.95 K	0.0412
in ethyl acetate, 317.75 K	0.0456
in isopropanol, 278.45 K	0.000994
in isopropanol, 283.55 K	0.00128
in isopropanol, 288.4 K	0.00168
in isopropanol, 293.25 K	0.00208
in isopropanol, 298.2 K	0.00265
in isopropanol, 303.05 K	0.00343
in isopropanol, 307.95 K	0.00445
in isopropanol, 312.9 K	0.00572
in isopropanol, 317.55 K	0.00731
in methanol, 278.85 K	0.000202
in methanol, 283.65 K	0.000267
in methanol, 288.55 K	0.000356
in methanol, 293.45 K	0.00041
in methanol, 298.3 K	0.000612
in methanol, 303.15 K	0.000813
in methanol, 308.1 K	0.00104
in methanol, 312.95 K	0.00139
in methanol, 317.75 K	0.00182
in n-butanol, 278.95 K	0.00194
in n-butanol, 283.65 K	0.00237
in n-butanol, 288.55 K	0.00309
in n-butanol, 293.45 K	0.00396
in n-butanol, 298.25 K	0.00469
in n-butanol, 303.05 K	0.00581
in n-butanol, 308.15 K	0.00732
in n-butanol, 312.95 K	0.00898
in n-butanol, 317.65 K	0.011
in n-propanol, 278.4 K	0.00228
in n-propanol, 283.65 K	0.0026
in n-propanol, 288.35 K	0.00326
in n-propanol, 293.25 K	0.00395
in n-propanol, 298.15 K	0.00488
in n-propanol, 303.05 K	0.00606
in n-propanol, 307.95 K	0.00756
in n-propanol, 312.9 K	0.00957
in n-propanol, 318.35 K	0.0121

— BigSolDB 2.1
